Results as given in patent publication US12303497B2, “Anti-androgens for the treatment of metastatic castration-sensitive prostate cancer” (priority 2019, dated 2025).

System: patients with metastatic castration-sensitive prostate cancer (mCSPC)

CNC(=O)c1ccc(N2C(=S)N(c3cnc(C#N)c(C(F)(F)F)c3)C(=O)C23CCC3)cc1F [Apalutamide, 4-[7-(6-cyano-5-trifluoromethylpyridin-3-yl)-8-oxo-6-thioxo-5,7-diazaspiro[3.4]oct-5-yl]-2-fluoro-N-methylbenzamide]
Grade ≥3 rash led to discontinuation (7 patients): 1.3%
Skin rash led to treatment discontinuation (12 patients): 2.3%
Skin rash led to dose reduction (28 patients): 5.3%
Adverse events led to discontinuation (42 patients): 8.0%
Skin rash led to dose interruption (44 patients): 8.4%
AE leading to discontinuation: Alanine aminotransferase increased (All Grades): 0 no. (%)
AE leading to discontinuation: Anxiety (All Grades): 1 (0.2) no. (%)
AE leading to discontinuation: Atrial fibrillation (All Grades): 1 (0.2) no. (%)
AE leading to discontinuation: Cardiac failure (All Grades): 0 no. (%)
AE leading to discontinuation: Cardio-respiratory arrest (All Grades): 1 (0.2) no. (%)
AE leading to discontinuation: Cardiogenic shock (All Grades): 1 (0.2) no. (%)
AE leading to discontinuation: Cerebrovascular disorder (All Grades): 1 (0.2) no. (%)
AE leading to discontinuation: Cognitive disorder (All Grades): 0 no. (%)
AE leading to discontinuation: Dehydration (All Grades): 1 (0.2) no. (%)
AE leading to discontinuation: Dyspnea (All Grades): 0 no. (%)
AE leading to discontinuation: Euphoric mood (All Grades): 1 (0.2) no. (%)
AE leading to discontinuation: Fatigue (All Grades): 4 (0.8) no. (%)
AE leading to discontinuation: Hot flush (All Grades): 1 (0.2) no. (%)
AE leading to discontinuation: Hypothermia (All Grades): 0 no. (%)
AE leading to discontinuation: Infections (All Grades): 1 (0.2) no. (%)
AE leading to discontinuation: Intracranial hemorrhage (All Grades): 0 no. (%)
AE leading to discontinuation: Ischemic cardiac events (All Grades): 2 (0.4) no. (%)
AE leading to discontinuation: Large intestinal ulcer perforation (All Grades): 1 (0.2) no. (%)
AE leading to discontinuation: Lip swelling (All Grades): 1 (0.2) no. (%)
AE leading to discontinuation: Loss of consciousness (All Grades): 0 no. (%)
AE leading to discontinuation: New cancer neoplasm (All Grades): 7 (1.3) no. (%)
AE leading to discontinuation: Parkinson's disease (All Grades): 1 (0.2) no. (%)
AE leading to discontinuation: Pleural effusion (All Grades): 0 no. (%)
AE leading to discontinuation: Pulmonary edema (All Grades): 0 no. (%)
AE leading to discontinuation: Pulmonary embolism (All Grades): 1 (0.2) no. (%)
AE leading to discontinuation: Radiculopathy (All Grades): 1 (0.2) no. (%)
AE leading to discontinuation: Rash (grouped term) (All Grades): 12 (2.3) no. (%)
AE leading to discontinuation: Respiratory failure (All Grades): 0 no. (%)
AE leading to discontinuation: Seizure (All Grades): 2 (0.4) no. (%)
AE leading to discontinuation: Subdural hemorrhage (All Grades): 0 no. (%)
AE leading to discontinuation: Sudden cardiac death (All Grades): 1 (0.2) no. (%)
AE leading to discontinuation: Sudden death (All Grades): 0 no. (%)
AE leading to discontinuation: Suicide (All Grades): 0 no. (%)
AE leading to dose interruption: Acute kidney injury (All Grades): 1 (0.2) no. (%)
AE leading to dose interruption: Acute respiratory failure (All Grades): 1 (0.2) no. (%)
AE leading to dose interruption: Allergy to chemicals (All Grades): 1 (0.2) no. (%)
AE leading to dose interruption: Anemia (All Grades): 2 (0.4) no. (%)
AE leading to dose interruption: Angina unstable (All Grades): 0 no. (%)
AE leading to dose interruption: Anxiety (All Grades): 2 (0.4) no. (%)
AE leading to dose interruption: Arthralgia (All Grades): 2 (0.4) no. (%)
AE leading to dose interruption: Aspartate aminotransferase or alanine aminotransferase increased (All Grades): 7 (1.3) no. (%)
AE leading to dose interruption: Asthenia (All Grades): 3 (0.6) no. (%)
AE leading to dose interruption: Atrial fibrillation (All Grades): 1 (0.2) no. (%)
AE leading to dose interruption: Bile duct obstruction (All Grades): 0 no. (%)
AE leading to dose interruption: Blood alkaline phosphatase increased (All Grades): 1 (0.2) no. (%)
AE leading to dose interruption: Cardiac amyloidosis (All Grades): 0 no. (%)
AE leading to dose interruption: Cardiac disorder (All Grades): 0 no. (%)
AE leading to dose interruption: Cardiac failure (All Grades): 0 no. (%)
AE leading to dose interruption: Cardiac failure congestive (All Grades): 1 (0.2) no. (%)
AE leading to dose interruption: Cerebrovascular accident (All Grades): 1 (0.2) no. (%)
AE leading to dose interruption: Cheilitis (All Grades): 1 (0.2) no. (%)
AE leading to dose interruption: Chronic hepatitis (All Grades): 1 (0.2) no. (%)
AE leading to dose interruption: Chronic obstructive pulmonary disease (All Grades): 2 (0.4) no. (%)
AE leading to dose interruption: Cognitive disorder (All Grades): 1 (0.2) no. (%)
AE leading to dose interruption: Confusional state (All Grades): 1 (0.2) no. (%)
AE leading to dose interruption: Constipation (All Grades): 1 (0.2) no. (%)
AE leading to dose interruption: Decreased appetite (All Grades): 2 (0.4) no. (%)
AE leading to dose interruption: Dehydration (All Grades): 0 no. (%)
AE leading to dose interruption: Depression (All Grades): 1 (0.2) no. (%)
AE leading to dose interruption: Diabetes mellitus (All Grades): 1 (0.2) no. (%)
AE leading to dose interruption: Diarrhea (All Grades): 1 (0.2) no. (%)
AE leading to dose interruption: Diplegia (All Grades): 0 no. (%)
AE leading to dose interruption: Dizziness (All Grades): 1 (0.2) no. (%)
AE leading to dose interruption: Dyspnea (All Grades): 1 (0.2) no. (%)
AE leading to dose interruption: Dysuria (All Grades): 1 (0.2) no. (%)
AE leading to dose interruption: Edema (All Grades): 1 (0.2) no. (%)
AE leading to dose interruption: Eyelid edema (All Grades): 1 (0.2) no. (%)
AE leading to dose interruption: Facial edema (All Grades): 1 (0.2) no. (%)
AE leading to dose interruption: Fall (All Grades): 1 (0.2) no. (%)
AE leading to dose interruption: Fatigue (All Grades): 6 (1.1) no. (%)
AE leading to dose interruption: Febrile neutropenia (All Grades): 1 (0.2) no. (%)
AE leading to dose interruption: Gamma-glutamyltransferase increased (All Grades): 1 (0.2) no. (%)
AE leading to dose interruption: Gastric ulcer perforation (All Grades): 1 (0.2) no. (%)
AE leading to dose interruption: Gastritis (All Grades): 0 no. (%)
AE leading to dose interruption: General physical health deterioration (All Grades): 1 (0.2) no. (%)
AE leading to dose interruption: Hallucination (All Grades): 1 (0.2) no. (%)
AE leading to dose interruption: Headache (All Grades): 1 (0.2) no. (%)
AE leading to dose interruption: Hematoma (All Grades): 1 (0.2) no. (%)
AE leading to dose interruption: Hematuria (All Grades): 2 (0.4) no. (%)
AE leading to dose interruption: Hemorrhage intracranial (All Grades): 1 (0.2) no. (%)
AE leading to dose interruption: Hemorrhagic erosive gastritis (All Grades): 1 (0.2) no. (%)
AE leading to dose interruption: Hepatic cirrhosis (All Grades): 1 (0.2) no. (%)
AE leading to dose interruption: Hepatic failure (All Grades): 0 no. (%)
AE leading to dose interruption: Hip fracture (All Grades): 1 (0.2) no. (%)
AE leading to dose interruption: Hot flush (All Grades): 1 (0.2) no. (%)
AE leading to dose interruption: Hydronephrosis (All Grades): 0 no. (%)
AE leading to dose interruption: Hyperbilirubinemia (All Grades): 1 (0.2) no. (%)
AE leading to dose interruption: Hypersensitivity (All Grades): 1 (0.2) no. (%)
AE leading to dose interruption: Hypertension (All Grades): 6 (1.1) no. (%)
AE leading to dose interruption: Hypertriglyceridemia (All Grades): 2 (0.4) no. (%)
AE leading to dose interruption: Hypokalemia (All Grades): 1 (0.2) no. (%)
